Here are results for twelve compounds from US20260355212A1 (priority 2022, published 2026).

One test addresses SARS-CoV-2 Mpro (Severe acute respiratory syndrome coronavirus 2, UniProt P0DTD1). Description: SARS-CoV-2 Mpro enzymatic inhibition assay (fluorescence). In kind it is biochemical. An outline of the steps:
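A fluorescence readout (340 nm excitation, 490 nm emission) was taken after the substrate reaction ran 60 min at 30° C. Before substrate addition, E. coli-expressed protease and compound (3-fold dilutions, 10 doses, duplicates) sat together 30 min at room temperature. Percent inhibition was fitted by variable-slope nonlinear regression to give IC50.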

The next test concerns the target HCoV-229E Mpro (Human coronavirus 229E, UniProt P0C6X1). Description: HCoV-229E Mpro enzymatic inhibition assay (fluorescence). In kind it is biochemical. As to the method:
(§1) The hCoV Mpro are cloned, expressed in E. coli and purified by WuXi AppTec Co., Ltd. The substrate are synthesized by Genscript Biotech.
(§2) Compounds are 3 fold serially diluted for 10 doses and added to an assay plate (384w format) using ECHO, in duplicate wells. The test concentration of test compounds is defined by sponsor. […] For no inhibition control (ZPE, zero percent effect), DMSO is added.
(§3) 25 μL of Mpro proteins are added to the assay plates containing compounds, respectively, using Multidrop. The compounds and Mpro proteins are pre-incubated at room temperature for 30 min. Then 5 µL of Mpro substrates are added to the related assay plates, respectively. Each activity testing point has a relevant background control to normalize the fluorescence interference of compound.
(§4) After 60 min incubation at 30° C., the fluorescence signal (RFU) is detected using a microplate reader M2e (SpectraMax) at Ex/Em=340 nm/490 nm.
(§5) The inhibition activity is calculated using the formula below, IC50 values will be calculated using the Inhibition % data.
(§6) Inhibition %=[(CPD−BGCPD)−(ZPE−BGZPE)/(HPE−BGHPE)−(ZPE−BGZPE)]×[…] • CPD: Signal of test compounds wells, containing compound+enzyme+substrate. • ZPE: Average of signals of zero percent effective control wells, containing enzyme+substrate, no compound. • HPE: Average of signals of hundred percent effect control wells, containing GC376+enzyme+substrate. • BG: Compound background control wells, containing compound+substrate, no enzyme
(§7) IC50 values of compounds are calculated with the GraphPad Prism software using the nonlinear regression model of log(inhibitor) vs. response—Variable slope (four parameters).

Another test has as its target HCoV-HKU1 Mpro (Human coronavirus HKU1, UniProt P0C6X2). Description: HCoV-HKU1 Mpro enzymatic inhibition assay (fluorescence). In kind it is biochemical. As to the method: as §1, §2, §3, §4, §5, §6, §7
The target in a further test is MERS Mpro (Middle East respiratory syndrome-related coronavirus, UniProt K9N7C7). The experiment in a line: biochemical. The arrangement: species or system MERS-CoV.
The next test deals with HCoV-NL63 Mpro (Human coronavirus NL63, UniProt P0C6X5). The experiment in a line: HCoV-NL63 Mpro enzymatic inhibition assay (fluorescence). In kind it is biochemical. As to the method:
as §1, §2, §3, §4, §5, §6, §7

Another test addresses HCoV-OC43 Mpro (Human coronavirus OC43, UniProt P0C6X6). Description: HCoV-OC43 Mpro enzymatic inhibition assay (fluorescence). It is filed as biochemical. As to the method: as §1, §2, §3, §4, §5, §6, §7
A further test deals with SARS-CoV-1 Mpro (Severe acute respiratory syndrome coronavirus, UniProt P0C6X7). The experiment in a line: biochemical.

pIC50: −log10 of the molar value. Like-named read-outs stand apart in the source and are kept apart here.

Sequence of HCoV-OC43 Mpro (P0C6X6 3247-3549 limits assumed): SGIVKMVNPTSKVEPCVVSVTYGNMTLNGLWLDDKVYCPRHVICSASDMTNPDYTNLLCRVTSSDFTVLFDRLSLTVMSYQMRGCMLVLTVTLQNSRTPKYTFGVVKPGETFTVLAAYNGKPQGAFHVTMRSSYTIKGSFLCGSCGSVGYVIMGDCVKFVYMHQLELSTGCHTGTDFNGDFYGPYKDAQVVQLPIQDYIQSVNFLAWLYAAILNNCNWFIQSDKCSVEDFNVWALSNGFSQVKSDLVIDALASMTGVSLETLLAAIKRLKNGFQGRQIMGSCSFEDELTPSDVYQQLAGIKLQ
Sequence of HCoV-229E Mpro (P0C6X1 2966-3267 limits assumed): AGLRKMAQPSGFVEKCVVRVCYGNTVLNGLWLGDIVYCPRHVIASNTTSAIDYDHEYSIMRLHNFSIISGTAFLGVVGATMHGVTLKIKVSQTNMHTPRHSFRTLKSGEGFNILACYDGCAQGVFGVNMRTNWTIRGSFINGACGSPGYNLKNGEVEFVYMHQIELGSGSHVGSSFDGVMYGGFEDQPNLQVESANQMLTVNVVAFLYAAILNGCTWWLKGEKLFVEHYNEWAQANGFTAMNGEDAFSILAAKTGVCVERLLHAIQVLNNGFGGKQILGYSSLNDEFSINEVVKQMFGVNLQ
Sequence of MERS Mpro (K9N7C7 3248-3553 limits assumed): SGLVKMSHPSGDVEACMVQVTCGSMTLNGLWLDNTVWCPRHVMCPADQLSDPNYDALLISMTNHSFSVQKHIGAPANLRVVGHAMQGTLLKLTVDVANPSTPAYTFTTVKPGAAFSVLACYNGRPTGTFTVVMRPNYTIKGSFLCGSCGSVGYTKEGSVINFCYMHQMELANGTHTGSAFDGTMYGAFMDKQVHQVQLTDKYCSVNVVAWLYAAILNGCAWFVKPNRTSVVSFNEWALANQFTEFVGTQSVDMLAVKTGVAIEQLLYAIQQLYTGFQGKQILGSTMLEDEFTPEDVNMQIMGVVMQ
Sequence of HCoV-NL63 Mpro (P0C6X5 2940-3242 limits assumed): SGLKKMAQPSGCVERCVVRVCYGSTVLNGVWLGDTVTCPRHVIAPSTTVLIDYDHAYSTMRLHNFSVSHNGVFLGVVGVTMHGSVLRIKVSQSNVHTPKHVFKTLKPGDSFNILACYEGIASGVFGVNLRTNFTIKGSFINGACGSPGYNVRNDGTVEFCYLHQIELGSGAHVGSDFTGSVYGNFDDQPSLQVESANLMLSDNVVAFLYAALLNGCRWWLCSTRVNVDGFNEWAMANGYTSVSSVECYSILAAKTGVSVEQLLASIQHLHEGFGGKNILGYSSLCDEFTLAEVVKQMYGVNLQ
Sequence of HCoV-HKU1 Mpro (P0C6X2 3335-3637 limits assumed): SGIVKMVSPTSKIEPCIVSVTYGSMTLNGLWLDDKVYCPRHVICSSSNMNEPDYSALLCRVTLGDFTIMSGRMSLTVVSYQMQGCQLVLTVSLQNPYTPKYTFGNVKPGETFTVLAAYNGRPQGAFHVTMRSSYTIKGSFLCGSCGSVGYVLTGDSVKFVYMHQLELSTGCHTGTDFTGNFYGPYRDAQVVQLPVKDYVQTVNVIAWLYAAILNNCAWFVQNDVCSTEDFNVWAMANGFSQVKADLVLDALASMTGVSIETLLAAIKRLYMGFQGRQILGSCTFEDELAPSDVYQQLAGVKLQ

By pIC50 is commonly meant the negative decadic logarithm of the IC50, by convention in mol/L. As to `CC1(C)[C@@H]2[C@@H](C(=O)N[C@H](C=O)C[C@@H]3CCNC3=O)N(C(=O)c3cc4c(F)cccc4[nH]3)C[C@@H]21` [Compound 15, (1R,2S,5S)-3-(4-fluoro-1H-indole-2-carbonyl)-6,6-dimethyl-N—((S)-1-oxo-3-((S)-2-oxopyrrolidin-3-yl)propan-2-yl)-3-azabicyclo[3.1.0]hexane-2-carboxamide], the negative logarithm of the IC50 (pIC50) on SARS-CoV-2 Mpro was 7.84; on HCoV-229E Mpro it was 7.40; against HCoV-HKU1 Mpro, 7.62; against MERS Mpro it was 6.76; against HCoV-NL63 Mpro, 7.35; against HCoV-OC43 Mpro, 7.48. Moreover, the pIC50 against SARS-CoV-1 Mpro is 7.49.

As for `CC1(C)[C@@H]2[C@@H](C(=O)N[C@H](C=O)C[C@@H]3CCNC3=O)N(C(=O)CC3CCC(F)(F)CC3)C[C@@H]21` [Compound 16, (1R,2S,5S)-3-(2-(4,4-difluorocyclohexyl)acetyl)-6,6-dimethyl-N—((S)-1-oxo-3-((S)-2-oxopyrrolidin-3-yl)propan-2-yl)-3-azabicyclo[3.1.0]hexane-2-carboxamide], the pIC50 at SARS-CoV-2 Mpro is 7.84; at HCoV-229E Mpro, 7.60; at HCoV-HKU1 Mpro, 7.90; at MERS Mpro, 6.80; against HCoV-NL63 Mpro it was 7.54; against HCoV-OC43 Mpro it was 7.52. For the same compound, at SARS-CoV-1 Mpro, the negative logarithm of the IC50 (pIC50) is 7.63.

For the compound `CC1(C)[C@@H]2[C@@H](C(=O)N[C@H](C=O)C[C@@H]3CCNC3=O)N(C(=O)C3(c4ccccc4)CCCC3)C[C@@H]21` [Compound 17, (1R,2S,5S)-6,6-dimethyl-N—((S)-1-oxo-3-((S)-2-oxopyrrolidin-3-yl)propan-2-yl)-3-(1-phenylcyclopentanecarbonyl)-3-azabicyclo[3.1.0]hexane-2-carboxamide], the pIC50 at SARS-CoV-2 Mpro was 7.82; against HCoV-229E Mpro, 7.32; on HCoV-HKU1 Mpro, 7.62; against MERS Mpro, 6.56; against HCoV-NL63 Mpro it was 6.74; at HCoV-OC43 Mpro, 7.22. The negative logarithm of the IC50 (pIC50) at SARS-CoV-1 Mpro is 7.56.

With `Cc1ccc2cc(C(=O)N3C[C@H]4[C@@H]([C@H]3C(=O)N[C@H](C=O)C[C@@H]3CCNC3=O)C4(C)C)[nH]c2c1C` [Compound 18, (1R,2S,5S)-3-(6,7-dimethyl-1H-indole-2-carbonyl)-6,6-dimethyl-N—((S)-1-oxo-3-((S)-2-oxopyrrolidin-3-yl)propan-2-yl)-3-azabicyclo[3.1.0]hexane-2-carboxamide], the pIC50 against SARS-CoV-2 Mpro was 7.82; at HCoV-229E Mpro, 7.41; against HCoV-HKU1 Mpro it was 7.48; against MERS Mpro it was 6.52; at HCoV-NL63 Mpro, 7.12; at HCoV-OC43 Mpro it was 7.18. Moreover, on SARS-CoV-1 Mpro, the negative-log IC50 (pIC50) is 7.47.

Turning to `CC1(C)[C@@H]2[C@@H](C(=O)N[C@H](C=O)C[C@@H]3CCNC3=O)N(C(=O)c3cc4ccc(F)cc4[nH]3)C[C@@H]21` [Compound 19, (1R,2S,5S)-3-(6-fluoro-1H-indole-2-carbonyl)-6,6-dimethyl-N—((S)-1-oxo-3-((S)-2-oxopyrrolidin-3-yl)propan-2-yl)-3-azabicyclo[3.1.0]hexane-2-carboxamide], the pIC50 was 7.81 against SARS-CoV-2 Mpro; 7.56 at HCoV-229E Mpro; 7.74 on HCoV-HKU1 Mpro; 6.73 on MERS Mpro; 7.43 against HCoV-NL63 Mpro; 7.30 against HCoV-OC43 Mpro. Further, the negative logarithm of the IC50 (pIC50) on SARS-CoV-1 Mpro was 7.40.

`CC1(C)[C@@H]2[C@@H](C(=O)N[C@H](C=O)C[C@@H]3CCNC3=O)N(C(=O)c3cc4c(F)cc(F)cc4[nH]3)C[C@@H]21` [Compound 20, (1R,2S,5S)-3-(4,6-difluoro-1H-indole-2-carbonyl)-6,6-dimethyl-N—((S)-1-oxo-3-((S)-2-oxopyrrolidin-3-yl)propan-2-yl)-3-azabicyclo[3.1.0]hexane-2-carboxamide]: the pIC50 is 7.81 against SARS-CoV-2 Mpro; 7.40 against HCoV-229E Mpro; 7.78 against HCoV-HKU1 Mpro; 6.56 against MERS Mpro; 7.43 at HCoV-NL63 Mpro; 7.26 at HCoV-OC43 Mpro. Further, the negative-log IC50 (pIC50) at SARS-CoV-1 Mpro was 7.39.

For `CC1(C)[C@@H]2[C@@H](C(=O)N[C@H](C=O)C[C@@H]3CCNC3=O)N(C(=O)c3cc4ccc(Cl)c(F)c4[nH]3)C[C@@H]21` [Compound 21, (1R,2S,5S)-3-(6-chloro-7-fluoro-1H-indole-2-carbonyl)-6,6-dimethyl-N—((S)-1-oxo-3-((S)-2-oxopyrrolidin-3-yl)propan-2-yl)-3-azabicyclo[3.1.0]hexane-2-carboxamide], the negative logarithm of the IC50 (pIC50) against SARS-CoV-2 Mpro was 7.81; against HCoV-229E Mpro, 7.65; against HCoV-HKU1 Mpro it was 7.42; at MERS Mpro, 6.63; at HCoV-NL63 Mpro it was 7.24; against HCoV-OC43 Mpro, 7.23. The compound also had a pIC50 on SARS-CoV-1 Mpro of 7.56.

Take `CC1(C)[C@@H]2[C@@H](C(=O)N[C@H](C=O)C[C@@H]3CCNC3=O)N(C(=O)CC3CCCC(F)(F)C3)C[C@@H]21` (stereo partly drawn) [Compound 22, (1R,2S,5S)-3-(2-(3,3-difluorocyclohexyl)acetyl)-6,6-dimethyl-N—((S)-1-oxo-3-((S)-2-oxopyrrolidin-3-yl)propan-2-yl)-3-azabicyclo[3.1.0]hexane-2-carboxamide]: the pIC50 on SARS-CoV-2 Mpro was 7.80; at HCoV-229E Mpro, 7.61; on HCoV-HKU1 Mpro it was 7.98; at MERS Mpro it was 6.91; against HCoV-NL63 Mpro, 7.43; against HCoV-OC43 Mpro, 7.55. Besides, on SARS-CoV-1 Mpro, the pIC50 was 7.56.

Take `CC1(C)[C@@H]2[C@@H](C(=O)N[C@H](C=O)C[C@@H]3CCNC3=O)N(C(=O)Cc3ccccc3)C[C@@H]21` [Compound 23, (1R,2S,5S)-6,6-dimethyl-N—((S)-1-oxo-3-((S)-2-oxopyrrolidin-3-yl)propan-2-yl)-3-(2-phenylacetyl)-3-azabicyclo[3.1.0]hexane-2-carboxamide]: the pIC50 is 7.80 on SARS-CoV-2 Mpro (mean, 25 nM protein, 25 μM substrate, 30 min pre-incubation, 60 min at 30° C., read-out: Mpro_SARS-CoV-2 mean IC50); 7.47 against HCoV-229E Mpro; 7.65 at HCoV-HKU1 Mpro; 6.90 against MERS Mpro; 7.30 on HCoV-NL63 Mpro; 7.52 against HCoV-OC43 Mpro. For the same compound, the pIC50 against SARS-CoV-1 Mpro is 7.63.

As to `CC1(C)[C@@H]2[C@@H](C(=O)N[C@H](C=O)C[C@@H]3CCNC3=O)N(C(=O)c3cc4cc(F)ccc4[nH]3)C[C@@H]21` [Compound 24, (1R,2S,5S)-3-(5-fluoro-1H-indole-2-carbonyl)-N-[(1S)-1-formyl-2-[(3S)-2-oxopyrrolidin-3-yl]ethyl]-6,6-dimethyl-3-azabicyclo[3.1.0]hexane-2-carboxamide], the pIC50 against SARS-CoV-2 Mpro is 7.78; against HCoV-229E Mpro, 7.49; against HCoV-HKU1 Mpro, 7.50; on MERS Mpro it was 6.57; against HCoV-NL63 Mpro it was 7.14; against HCoV-OC43 Mpro, 7.22. In addition, on SARS-CoV-1 Mpro, the pIC50 was 7.13.

In the case of `CC1(C)[C@@H]2[C@@H](C(=O)N[C@H](C=O)C[C@@H]3CCCNC3=O)N(C(=O)c3cc4cccc(Cl)c4[nH]3)C[C@@H]21` [Compound 25, (1R,2S,5S)-3-(7-chloro-1H-indole-2-carbonyl)-6,6-dimethyl-N—((S)-1-oxo-3-((S)-2-oxopiperidin-3-yl)propan-2-yl)-3-azabicyclo[3.1.0]hexane-2-carboxamide], the pIC50 against SARS-CoV-2 Mpro is 7.78; at HCoV-229E Mpro it was 7.47; against HCoV-HKU1 Mpro, 7.52; against MERS Mpro, 6.85; on HCoV-NL63 Mpro, 7.27; against HCoV-OC43 Mpro it was 7.37. In addition, the pIC50 on SARS-CoV-1 Mpro is 7.62.

As to `O=C[C@H](C[C@@H]1CCNC1=O)NC(=O)[C@@H]1[C@H]2CCC[C@H]2CN1C(=O)c1cc2ccccc2[nH]1` [Compound 26, (1S,3aR,6aS)-2-(1H-indole-2-carbonyl)-N—((S)-1-oxo-3-((S)-2-oxopyrrolidin-3-yl)propan-2-yl)octahydrocyclopenta[c]pyrrole-1-carboxamide], the pIC50 was 7.77 against SARS-CoV-2 Mpro; 7.37 on HCoV-229E Mpro; 7.68 against HCoV-HKU1 Mpro; 6.76 at MERS Mpro; 7.42 against HCoV-NL63 Mpro; 7.54 on HCoV-OC43 Mpro. This compound also gave a pIC50 on SARS-CoV-1 Mpro of 7.03.
